Measurements: patent US10632133B2, “Anti-viral azide containing compounds” (Life Technologies Corporation, priority 2010, dated 2020)

How the values were obtained:
[1] = system: HIV; assay: HIV infectivity, luciferase reporter assay on TZM/BI reporter cell line with azide-labeled virus; type: cell-based, human immunodeficiency virus (HIVNL4-3); settings: virus produced in CEMx174 cells spiked with the compound; incubated 12 hours on TZM/BI; single cycle replication system; two luciferase reagents (FIGS. 3 and 4)
Experimental: CEMx174 cells were transfected with HIVNL4-3 in a T-150 flask and the virus production was monitored by reverse transcriptase activity until peak virus production occurred (usually 7 to 9 days post transfection). Prior to transfection, the CEMx174 cells were spiked with the following azide-modified biomolecules: 15-azidopentadecanoic acid (50-100 μM), 12-azidododecanoic acid (50-100 μM), tetraacetylated N-azidoacetylgalactosamine (20-40 μM), and tetraacetylated N-azidoacetyl-D-mannosamine (20-40 μM).
Labeled virus was also obtained from the transfected cells. More specifically, virus-containing supernatants were collected and virus was purified through 20% sucrose as previously described (Graham, D. R. et al., Proteomics 2008, 8:4919-30). The purified virus was then mixed with the CLICK-IT® detection reagent, tetramethylrhodamine (TAMRA) alkyne and the CLICK-IT® Protein Reaction Buffer Kit (Invitrogen, Carlsbad, Calif.). Virus samples were run on a one-dimensional gel to reveal azide-labeled viral proteins (FIG. 2). […]
To examine the effect of the azide-modified biomolecules on the innate biology of the virus, the azide-labeled virus from the transfected cells was isolated and tested in cell infection studies. […] Viral infectivity was determined by measuring cellular luciferase activities with two different luciferase reagents.

[2] = system: Nuclear-GFP BacMam 2.0 virus (baculovirus); assay: BacMam baculovirus infectivity in U2-OS cells (nuclear-GFP expression); type: cell-based; settings: virus labeled in Sf9 cells with 50 uM analog; 20 or 50 uL virus, overnight at 37C; FIG. 5
Excerpt: Inhibition of insect cell baculovirus infectivity with azido fatty acid analogs: The BacMam system uses a modified insect cell virus (baculovirus) as a vehicle to efficiently deliver and express genes in mammalian cells, A Nuclear-GFP BacMam 2.0 expression system (Invitrogen, C10602) was used as a model to determine if PTM analog labeling of the virus would affect mammalian cell infectivity. Viruses were labeled with various PTM analogs and used to infect mammalian cells. Infectivity was determined by the expression of nuclear-GFP, is viral entry into the cell is required for expression of GFP protein. […]
Characterization of BacMam virus production: To verify, quantitate, and normalize the amount of enriched viruses obtained from insect cell supernatants, samples of each virus were lysed in SDS sample preparation buffer (SPB), sonicated with a probe tip sonicator, and heated at 90C to completely dissolve the viral proteins. Viral protein concentrations of the lysates were then determined. […]
Mammalian cell infection protocol: To determine if the PTM analog-labeled viruses retain the ability to infect mammalian cells, 50,000 U2-OS cells (human osteosarcoma cell line) were plated onto a 6 well-chamber glass bottom plate. […] The following day cells were imaged on AMG EVOS fluorescence microscope at 10× or 20× magnification using both white light and GFP filters (FIG. 5). […]

Structure (SMILES) | impact on the infectivity of the virus (cellular luciferase activities) [1] | nuclear-GFP expression in U2-OS cells treated with labeled BacMam virus [2]
[N-]=[N+]=NCCCCCCCCCCCC(=O)O [12-azidododecanoic acid] | profound impact on the infectivity of the virus | no nuclear-GFP expression
[N-]=[N+]=NCCCCCCCCCCCCCCC(=O)O [15-azidopentadecanoic acid] | – | no nuclear-GFP expression
